In assay [1] the test system is GABAA receptor subtypes α1β3γ2, α2β3γ2, α3β3γ2, α4β3γ2 and α5β3γ2. Put plainly: Two-electrode voltage clamp, modulation of GABA (EC3-5) elicited currents in Xenopus oocytes. It is filed as cell-based. An excerpt: Compounds having selective activity bias for α4 and α5-GABAAR can be identified. Patch clamp assays are used to quantify chloride flux induced inward currents resulting from agonism of GABAAR containing single α-subunits. […] For electrophysiological experiments with Xenopus oocytes (Ramerstorfer et al. European journal of pharmacology 2010, 636, 8-27) mature female Xenopus laevis (Nasco, Fort Atkinson, Wis., USA) were anaesthetized in a bath of ice-cold 0.17% Tricain (Ethyl-m-aminobenzoate) before decapitation and transfer of the frog's ovary to ND96 medium (96 mM NaCl, 2 mM KCl, 1 mM MgCl2, 5 mM HEPES; pH 7.5). Following incubation in 1 mg/ml collagenase (Sigma-Aldrich, St. Louis, Mo., USA) for 30 minutes, stage 5 to 6 oocytes were singled out of the ovary and defolliculated using a platinum wire loop. […] Maximum currents measured in mRNA injected oocytes were in the microampere range for all receptor subtypes. […] Data were digitized using a Digidata 1322A or 1550 data acquisition system (Axon Instruments, Union City, Calif., USA), recorded using Clampex 10.5 software (Molecular Devices, Sunnyvale, Calif., USA), and analyzed using Clampfit 10.5 and GraphPad Prism 6.0 (La Jolla, Calif., USA) software. […]
For orientation: Two-electrode voltage clamp is typically applied to oocytes expressing channels or transporters.

Assay [2] deals with human airway smooth muscle. Put plainly: Relaxation of acetylcholine contracted human airway smooth muscle strips. Particulars: EC50 acetylcholine, 100 μM compound, 15-60 minutes.

The values that follow come from patent US11447495B2, “Substituted benzo[f]imidazo[1,5-a][1,4]diazepines as GABA(a) receptor modulators” (priority 2016, dated 2022).

In the case of `C#Cc1ccc2c(c1)C(c1ccccc1F)=N[C@H](C)c1c(C(=O)O)ncn1-2` [SH-053-2′F-R-CH3-Acid, (R)-8-ethynyl-6-(2-fluorophenyl)-4-methyl-4H-benzo[f]imidazo[1,5-a][1,4]diazepine-3-carboxylic acid], the “GABAA receptor subtype selectivity, modulation of GABA elicited currents” value in assay [1] is on record as “positive α5β3γ2-selective GABAA receptor modulator”. For the same compound, in assay [2], the “human airway smooth muscle contractile force” value is “reduced the constriction of human airway smooth muscle after 15 minutes for a period of at least 60 minutes”.
